Assay results reported in US11154543B2, “P38 MAP kinase inhibitors for wound healing” (The Schepens Eye Research Institute, Inc., priority 2015, dated 2021).
Entries after “also recorded” stand apart in the source; their conditions may differ.

Key:
Assay type in all cases: cell-based
[1] = system: human corneal fibroblasts (HCF); assay: αSMA western blot in human corneal fibroblasts ± TGF-β1; conditions: for αSMA protein expression in the presence of TGF-β1: inhibitor 24 h, then inhibitor + TGF-β1 24 h, Birb-796 10 μM, SB239063 20 μM, SB203580 5 uM, compared with HCF+TGF-β1; for αSMA expression (ratio of αSMA to β actin), TGF-β1-induced increase: serum-free, 10 uM inhibitor pre-treatment 24 h, then inhibitor + 2 ng/ml TGF-β1 24 h, compared with TGF-β1 alone (lane 2)
Method: FIG. 1 is an image of a representative western blot of human corneal fibroblasts cultured with 1) Basic Medium (BM: Eagles minimum essential medium) for 48 hours; 2) BM for 24 hours, then BM+TGF-β1 for 24 hours, 3) BM for 24 hours, then BM+p38 inhibitor for 24 hours, and 4) BM+p38 Inhibitor for 24 hours, then BM+p38 inhibitor+TGFβ1. Graph of SMA corrected per lane with internal control (β-actin).
FIG. 4 is a graph depicting analysis of αSMA protein expression in human corneal fibroblasts cultured with 1) Basic Medium (BM: Eagles minimum essential medium) for 48 hours; 2) BM for 24 hours, then BM+TGF-β1 for 24 hours, 3) BM for 24 hours, then BM+Birb-796 for 24 hours, 4) BM+Birb-796 for 24 hours, then BM+Birb-796+TGF-β1 for 24 hours; 5) BM for 24 hours, then BM+SB239063 for 24 hours; 6) BM+SB239063 for 24 hours, then BM+SB239063+TGF-β1 for 24 hours; 7) BM for 24 hours, then BM+SB203580 for 24 hours; and 8) BM+SB203580 for 24 hours, then BM+SB203580+TGF-β1 for 24 hours. Graph of SMA corrected per lane with internal control (β-actin).
The protocol for alpha smooth muscle actin (αSMA) testing in human corneal fibroblasts (HCF) is shown below using treatment with/without p38 inhibitor (SB202190) as an example treatment. • 1. Grow HCF (human corneal fibroblast cells) in 100 mm dishes (×12). • 2. When cells get 60-70% confluent, rinse with PBS for 3 times. Then: • a. Put serum-free EMEM to starve cells overnight. (9×) • b. Put serum-free EMEM with 10 uM of p38 inhibitor (SB202190) overnight to pre-treat cells. (3×) • 3. Next day, treat cells as follows and incubate overnight: • c. 10 ml of serum-free EMEM (3×) • d. 10 ml of serum-free EMEM with 2 ng/ml of TGF-β1. (3×) • e. 10 ml of serum-free EMEM with 10 uM of p38 inhibitor (SB202190). (3×) • f. 10 ml of serum-free EMEM with 10 uM of p38 inhibitor (SB202190) and 2 ng/ml of TGF-β1 into pre-treated dishes (2b). (3×) • 4. Harvest cells by trypsinization and store cells at −80° C.
(§1) Samples were lysed with RIPA buffer and western blot analysis was performed, as previously described (Chung E H, IOVS 1999; 40:1952-8) with minor changes. Membranes with separated proteins were probed with anti-αSMA (alpha-smooth muscle actin) and β-Actin (beta-actin) according to the protocol in Example 1. After reaction with corresponding DyLight secondary antibodies, membranes were scanned on Odyssey and software was used to measure the bands (ImageJ, v. 1.5), and the data was analyzed and plotted (Prism 5.0; GraphPad software).
The above protocol was utilized to assay αSMA expression in human corneal and skin fibroblasts under different culture conditions, including in the presence of p38 inhibitor. […] In FIG. 3, high levels of αSMA indicate that most dermal fibroblasts in culture were already myofibroblast cells (lane 1).
Three additional p38 inhibitors shown in Table 1 below were test in HCF. […] The concentrations of these three inhibitors were not optimized and it is believed that with higher concentration of these p38 inhibitors, αSMA expression will be decreased to a greater extent.

human dermal fibroblasts = assay: αSMA western blot in human dermal fibroblasts ± TGF-β1; conditions: BM+10% FBS, p38 inhibitor 24 h pre-treatment ± TGF-β1, compared with normal culture (lane 1) and T1 (lane 2)
Method: FIG. 3 is an image of a representative western blot of human dermal fibroblasts cultured with 1) Basic Medium (BM: Eagles minimum essential medium)+10% FBS for 48 hours; 2) BM+10% FBS for 24 hours, then BM+10% FBS+TGFβ1 for 24 hours, 3) BM+10% FBS for 24 hours, then BM+10% FBS+p38 inhibitor for 24 hours, and 4) BM+10% FBS+p38 Inhibitor for 24 hours, then BM+10% FBS+p38 inhibitor+TGF-β1. Graph of SMA corrected per lane with internal control (β-actin).
The protocol for alpha smooth muscle actin (αSMA) testing in human corneal fibroblasts (HCF) is shown below using treatment with/without p38 inhibitor (SB202190) as an example treatment. • 1. Grow HCF (human corneal fibroblast cells) in 100 mm dishes (×12). • 2. When cells get 60-70% confluent, rinse with PBS for 3 times. Then: • a. Put serum-free EMEM to starve cells overnight. (9×) • b. Put serum-free EMEM with 10 uM of p38 inhibitor (SB202190) overnight to pre-treat cells. (3×) • 3. Next day, treat cells as follows and incubate overnight: • c. […]
as §1, with “Membranes with separated proteins were probed with anti-αSMA (alpha-smooth muscle actin) and β-Actin (beta-actin) according to the protocol in Example 1.” left out, “software). […]” for “software).”

[2] = system: human corneal fibroblasts; assay: Indirect immunofluorescence of SMA in human corneal fibroblasts; conditions: HCF; p38 inhibitor 24 h, then p38 inhibitor + TGF-β1; compared with TGF-β1 alone (FIG. 2B)
Text: FIGS. 2A-2D are representative indirect immunofluorescent images of human corneal fibroblasts. […] Grey stripes staining=SMA and grey dots staining=DAPI, a nuclear counterstain. […] This is in agreement with the western blot in FIG. 1.

[3] = system: human corneal 3-D constructs (HCF and their self-assembled matrix); assay: αSMA western blot in human corneal 3-D stromal constructs
Method: FIG. 6 includes a bar graph and a western blot showing analysis of αSMA expression in human corneal 3-D constructs. Human Corneal Fibroblasts (HCF) were cultured as follows: 1) RM (Regular Medium: Eagle's minimum essential medium+10% FBS for 9 days); 2) T1 (RM for 24 hours, then RM+2 ng/ml of TGF-beta (T1) for 8 days); 3) p38 inhibitor (p38inh) (RM for 24 hours, then RM+10 μM of p38 inhibitor [SB202190] for 8 days); and 4) T1+p38inh (RM+SB202190 for 24 hours, then RM+SB202190+TGF-1 for 8 days). Graph of αSMA corrected per lane with internal control (β-actin). […] The western blot is shown in the upper right corner.
Data shown in previous figures were generated using cells in culture. […] The system a cell-based 3-D corneal stromal construct containing human corneal fibroblasts (HCF) and their self-assembled matrix. This art-recognized model mimics stromal development and wound healing. To test this, we cultured human corneal fibroblasts (HCF) in 0.5 mM Vitamin C±2 ng/ml TGF-β1 (T1) and/or 10 μM p38 inhibitor #1 (SB202190) for 9 days. The media was changed every day. After 9 days, the samples were harvested and analyzed for αSMA by western blot (WB). […] The data also indicate that p38 inhibitor(s) inhibit scar formation during corneal wound healing.

[4] = system: human corneal myofibroblasts (T1-treated HCF); assay: Reversal of αSMA in TGF-β1-differentiated human corneal myofibroblasts (western blot); conditions: HCF pre-treated 2 ng/ml T1 for 3 days
Method: FIGS. 7A and 7B show analysis of αSMA expression in HCF cultured as follows: 1) HCF: RM, 2) T1: RM+T1 (for 3 days), or 3) RM+T1 for 3 days, then RM±p38inh for 1 (D1), 2 (D2), or 3 days (D3). (A) Representative western blot.
In this experiment, we examined if p38 inhibitor could not only reduce, but reverse αSMA levels, thus converting myofibroblasts back to their fibroblastic phenotype. To do this, HCF were treated with 2 ng/ml of T1 for 3 days. This allowed for the majority of the HCF to differentiate to their myofibroblastic phenotype with high levels of αSMA expression. After rinsing with PBS three times, these T1-treated cells were split into two groups: 1) regular medium (RM) and 2) p38 inhibitor (p38inh) medium. Media was changed every day. Cells were harvested after 1, 2, or 3 days for αSMA analysis by WB. […] The T1 cells then were split into two groups, RM or p38inh, and the appropriate medium was applied. […] On day 3 (D3), αSMA levels in both media samples decreased.

Cc1ccc(-n2nc(C(C)(C)C)cc2NC(=O)Nc2ccc(OCCN3CCOCC3)c3ccccc23)cc1 [Birb-796, Doramapimod]
αSMA protein expression in the presence of TGF-β1 [1]: significantly different

Oc1ccc(-c2nc(-c3ccc(F)cc3)c(-c3ccncc3)[nH]2)cc1 [SB202190, 4-(4-Fluorophenyl)-2-(4-hydroxyphenyl)-5-(4-pyridyl)1H-imidazole]
αSMA expression (ratio of αSMA to β actin), TGF-β1-induced increase [1]: inhibits the TGF-β1 induced increase in expression of αSMA
αSMA expression (ratio of αSMA to β actin), TGF-β1-induced increase ([1]; listed as p38 inhibitor): significantly different
αSMA expression (corrected with β-actin) (human dermal fibroblasts): significantly decreased
αSMA expression (corrected with β-actin) (human dermal fibroblasts; listed as p38 inhibitor): significantly different
αSMA staining / number of SMA-positive cells [2]: mitigated
αSMA expression, T1 + p38 inhibitor versus control ([3]; 10 μM inhibitor + 2 ng/ml TGF-β1, 9 days (lane 4 vs lane 1)): decreased as compared with control
αSMA expression, T1 + p38 inhibitor versus T1 ([3]; 10 μM inhibitor + 2 ng/ml TGF-β1, 9 days (lane 4 vs lane 2), p<0.001): significantly lower than T1; also recorded: significantly different
αSMA expression, p38 inhibitor alone ([3]; 10 μM inhibitor, 9 days (lane 3), compared with control, p<0.05): significantly decreased; also recorded: significantly lower than others
αSMA levels on day 1 (D1) ([4]; then p38inh medium 1 day, compared with T1 control): continued to increase
αSMA levels on day 2 (D2) ([4]; then p38inh medium 2 days, compared with RM sample, p<0.05): significantly lower than the RM sample; also recorded: decreased significantly
αSMA levels on day 3 (D3) ([4]; then p38inh medium 3 days, compared with RM sample): continued to be lower than that in the RM sample

C[S+]([O-])c1ccc(-c2nc(-c3ccc(F)cc3)c(-c3ccncc3)[nH]2)cc1 (centres unmarked) [SB203580, 4-(4′-Fluorophenyl)-2-(4′-methylsulfinylphenyl)-5-(4′-pyridyl)-imidazole]
αSMA protein expression in the presence of TGF-β1 [1]: significantly different

COc1nccc(-c2c(-c3ccc(F)cc3)ncn2C2CCC(O)CC2)n1 (stereo not drawn) [SB239063, trans-1-(4-Hydroxycyclohexyl)-4-(4-fluorophenyl)-5-(2-methoxypyridimidin-4-yl)imidazole]
αSMA protein expression in the presence of TGF-β1 [1]: significantly different
